Assay results published in US20260256699A1, “BIOACTIVE MICROSPHERE AND METHOD FOR PREPARATION THEREOF” (priority 2021, published 2026).

Assay: Stability of vitamin D2 in milk boiled twice (relative assay)
Type: physicochemical
Experimental: In an example, the effect of bioactive microsphere of the present disclosure on the stability of bioactive, when subjected to the deteriorating effect of processing parameter such as heating, was studied. The stability of vitamin D2 was determined by heating the milk containing the bioactive microsphere as prepared in Example 1, and the milk containing pure vitamin D2, i.e., control vitamin D2.
For the purpose of this example, both the vitamin D2 containing milk were boiled twice, and the amount of vitamin D2 was determined after second boiling, as shown in Table 1. The difference in the amount of vitamin D2 in the milk before boiling, and after the second boiling, illustrated the deteriorating effect of heat on the vitamin D2.

Stability of vitamin D2 in milk on boiling (in words) (milk, boiled two times): deactivated on boiling
% Relative assay Before boiling (%) (vitamin D2 in milk, before boiling): 100%
% Degradation (vitamin D2 in milk, before boiling vs after second boiling): 65%
% Relative assay After second boiling (%) (vitamin D2 in milk, boiled twice, after second boiling): 35%
SMILES: C=C1CC[C@H](O)C/C1=C/C=C1\CCC[C@]2(C)[C@@H]([C@H](C)/C=C/[C@H](C)C(C)C)CC[C@@H]12 [Control vitamin D2, vitamin D2]
